Literature values, collected in patent US6770269B1, “Cosmetic and dermatological light-protective formulations containing triazine derivatives and one or several esters of unbranched-chain carboxylic acids and branched-chain alcohols” (Beiersdorf AG, priority 1998, dated 2004).

- corresponding dissolved, and therefore active, UV filter substance (corresponds to the maximum solubility in known solvents): 1-1.5 % by weight
- maximum amount of the filter that known solvents can dissolve (known solvents (lipids), prior art): about 15 % by weight
SMILES: CCCCC(CC)COC(=O)c1ccc(Nc2nc(Nc3ccc(C(=O)OCC(CC)CCCC)cc3)nc(Nc3ccc(C(=O)OCC(CC)CCCC)cc3)n2)cc1 (centres unmarked) [UVINUL7 T 150, tris(2-ethylhexyl) 4,4′,4″-(1,3,5-triazine-2,4,6-triyltriimino)trisbenzoate]
